Laboratory results: patent US20240190880A1 (THE REGENTS OF THE UNIVERSITY OF MICHIGAN, priority 2021, published 2024)
Like-named read-outs stand apart in the source and are kept apart here.

Target: T1, ER (Homo sapiens, UniProt P03372)
T1 construct: host or cells: T47D and MCF7 human breast cancer cells
T1 sequence (P03372 1-595): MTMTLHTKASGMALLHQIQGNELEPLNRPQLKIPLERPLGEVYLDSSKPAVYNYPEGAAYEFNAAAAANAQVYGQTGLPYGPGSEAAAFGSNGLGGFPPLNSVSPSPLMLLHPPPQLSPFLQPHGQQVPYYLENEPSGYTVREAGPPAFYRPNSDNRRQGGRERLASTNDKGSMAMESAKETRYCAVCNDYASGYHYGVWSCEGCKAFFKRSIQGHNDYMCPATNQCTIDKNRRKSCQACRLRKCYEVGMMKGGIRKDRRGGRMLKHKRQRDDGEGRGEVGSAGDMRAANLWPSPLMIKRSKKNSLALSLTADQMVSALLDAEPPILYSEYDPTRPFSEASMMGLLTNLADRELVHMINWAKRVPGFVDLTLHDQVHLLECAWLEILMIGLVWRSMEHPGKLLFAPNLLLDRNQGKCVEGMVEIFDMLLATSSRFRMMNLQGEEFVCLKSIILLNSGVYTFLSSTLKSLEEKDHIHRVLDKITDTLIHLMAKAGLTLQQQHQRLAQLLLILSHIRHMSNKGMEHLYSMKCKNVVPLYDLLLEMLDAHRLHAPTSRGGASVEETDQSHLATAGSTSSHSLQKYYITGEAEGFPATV
Experiment: ER degradation activity, in-cell western blot analysis in T47D cells
Assay type: cell-based
Procedure, shortened: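 Read-out is near-infrared fluorescence from an in-cell western, expressed as ER percentage relative to untreated and DMSO controls taken as 100%. T47D breast cancer cells received compound for 16 h in 0.5% DMSO.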

[1] = 16 hours, Table A does not say which cell line (T47D or MCF7), read-out: Potency (DC50)
[2] = compounds 16 hours, Table A does not say whether T47D or MCF7, read-out: Potency (DC50)

Row | SMILES | DC50 [1] [nM] | DC50 [2] [nM]
1 | C[C@@H]1Cc2c([nH]c3ccccc23)[C@@H](c2ccc(N3CCC4(CCN(C(=O)CN5Cc6cc7c(cc6C5)C(=O)N(C5CCC(=O)NC5=O)C7=O)CC4)CC3)cc2)N1CC(F)F (stereo partly drawn) [E 265, 6-(2-(9-(4-((1R,3R)-2-(2,2-difluoroethyl)-3-methyl-2,3,4,9-tetrahydro-1H-pyrido[3,4-b]indol-1-yl)phenyl)-3,9-diazaspiro[5.5]undecan-3-yl)-2-oxoethyl)-2-(2,6-dioxopiperidin-3-yl)-6,7-dihydropyrrolo[3,4-f]isoindole-1,3(2H,5H)-dione] | 10 to 100 | –
2 | C[C@@H]1Cc2c(ccc3[nH]ncc23)[C@@H](c2ccc(N3CCC4(CCN(C(=O)CN5Cc6cc7c(cc6C5)C(=O)N(C5CCC(=O)NC5=O)C7=O)CC4)CC3)cn2)N1CC(F)(F)F (stereo partly drawn) [E 413, 2-(2,6-dioxopiperidin-3-yl)-6-(2-(9-(6-((6S,8R)-8-methyl-7-(2,2,2-trifluoroethyl)-6,7,8,9-tetrahydro-3H-pyrazolo[4,3-f]isoquinolin-6-yl)pyridin-3-yl)-3,9-diazaspiro[5.5]undecan-3-yl)-2-oxoethyl)-6,7-dihydropyrrolo[3,4-f]isoindole-1,3(2H,5H)-dione] | – | < 10
3 | C[C@@H]1Cc2c([nH]c3ccccc23)[C@@H](c2c(F)cc(N3CCC4(CN(C(=O)CN5Cc6cc7c(cc6C5)C(=O)N(C5CCC(=O)NC5=O)C7)C4)C3)cc2F)N1CC(F)F (stereo partly drawn) [E 72, 3-(6-(2-(6-(4-((1R,3R)-2-(2,2-difluoroethyl)-3-methyl-2,3,4,9-tetrahydro-1H-pyrido[3,4-b]indol-1-yl)-3,5-difluorophenyl)-2,6-diazaspiro[3.4]octan-2-yl)-2-oxoethyl)-1-oxo-3,5,6,7-tetrahydropyrrolo[3,4-f]isoindol-2(1H)-yl)piperidine-2,6-dione] | < 10 | –
4 | O=C1CCC(N2C(=O)c3cc4c(cc3C2=O)CN(CC2(F)CCN(CC3CCN(c5ccc([C@@H]6c7ccc(O)cc7CC[C@@H]6c6ccccc6)cc5)CC3)CC2)C4)C(=O)N1 (stereo partly drawn) [E 211, 2-(2,6-dioxopiperidin-3-yl)-6-((4-fluoro-1-((1-(4-((1R,2S)-6-hydroxy-2-phenyl-1,2,3,4-tetrahydronaphthalen-1-yl)phenyl)piperidin-4-yl)methyl)piperidin-4-yl)methyl)-6,7-dihydropyrrolo[3,4-f]isoindole-1,3(2H,5H)-dione] | > 100 | –
5 | C[C@H]1CC2(CCN(c3ccc([C@@H]4c5ccc(O)cc5CC[C@@H]4c4ccccc4)cc3)CC2)CN1C(=O)CN1Cc2cc3c(cc2C1)C(=O)N(C1CCC(=O)NC1=O)C3=O (mixture of isomers) [E 142, Rac-2-(2,6-dioxopiperidin-3-yl)-6-(2-((S)-8-(4-((1R,2S)-6-hydroxy-2-phenyl-1,2,3,4-tetrahydronaphthalen-1-yl)phenyl)-3-methyl-2,8-diazaspiro[4.5]decan-2-yl)-2-oxoethyl)-6,7-dihydropyrrolo[3,4-f]isoindole-1,3(2H,5H)-dione] | 10 to 100 | –
6 | O=C1CCC(N2C(=O)c3cc4c(cc3C2=O)CCN(C(=O)CN2CC3(CCN(c5ccc([C@@H]6c7ccc(O)cc7CC[C@@H]6c6ccccc6)cc5)CC3)C2)CC4)C(=O)N1 (stereo partly drawn) [E 170, 2-(2,6-dioxopiperidin-3-yl)-7-(2-(7-(4-((1R,2S)-6-hydroxy-2-phenyl-1,2,3,4-tetrahydronaphthalen-1-yl)phenyl)-2,7-diazaspiro[3.5]nonan-2-yl)acetyl)-6,7,8,9-tetrahydroazepino[4,5-f]isoindole-1,3(2H,5H)-dione] | > 100 | –
7 | O=C1CCC(N2C(=O)c3cc4c(cc3C2=O)CN(CC2CN(CC3CCN(c5ccc([C@@H]6c7ccc(O)cc7CC[C@@H]6c6ccc(F)cc6)cc5)CC3)C2)C4)C(=O)N1 (stereo partly drawn) [E 274, 2-(2,6-dioxopiperidin-3-yl)-6-((1-((1-(4-((1R,2S)-2-(4-fluorophenyl)-6-hydroxy-1,2,3,4-tetrahydronaphthalen-1-yl)phenyl)piperidin-4-yl)methyl)azetidin-3-yl)methyl)-6,7-dihydropyrrolo[3,4-f]isoindole-1,3(2H,5H)-dione] | > 100 | –
8 | C[C@@H]1Cc2c([nH]c3ccccc23)[C@@H](c2c(F)cc(N3CCC4(CC3)CN(C(=O)CN3Cc5cc6c(cc5C3)C(=O)N(C3CCC(=O)NC3=O)C6=O)C4)cc2F)N1CC(F)F (stereo partly drawn) [E 111, 6-(2-(7-(4-((1R,3R)-2-(2,2-difluoroethyl)-3-methyl-2,3,4,9-tetrahydro-1H-pyrido[3,4-b]indol-1-yl)-3,5-difluorophenyl)-2,7-diazaspiro[3.5]nonan-2-yl)-2-oxoethyl)-2-(2,6-dioxopiperidin-3-yl)-6,7-dihydropyrrolo[3,4-f]isoindole-1,3(2H,5H)-dione] | < 10 | –
9 | C[C@@H]1Cc2cc(O)ccc2[C@@H](c2ccc(N3CCC(C(=O)N4CC(CN5Cc6cc7c(cc6C5)C(=O)N(C5CCC(=O)NC5=O)C7=O)C4)CC3)cc2)N1CC(F)F (stereo partly drawn) [E 350, 6-((1-(1-(4-((1R,3R)-2-(2,2-difluoroethyl)-6-hydroxy-3-methyl-1,2,3,4-tetrahydroisoquinolin-1-yl)phenyl)piperidine-4-carbonyl)azetidin-3-yl)methyl)-2-(2,6-dioxopiperidin-3-yl)-6,7-dihydropyrrolo[3,4-f]isoindole-1,3(2H,5H)-dione] | > 100 | –
10 | O=C1CCC(N2Cc3cc4c(cc3C2=O)CN(C(=O)[C@H]2CC[C@@H](N3CC(Oc5ccc([C@@H]6c7ccc(O)cc7CC[C@@H]6c6ccccc6)cc5)C3)CC2)C4)C(=O)N1 (single isomer, unassigned) [E 358] | > 100 | –
11 | CN(c1ccc([C@H]2c3ccc(O)cc3CC[C@H]2c2ccccc2)cc1)C1CN([C@H]2CC[C@H](C(=O)N3Cc4cc5c(cc4C3)C(=O)N(C3CCC(=O)NC3=O)C5=O)CC2)C1 (stereo partly drawn) [E 395, 2-(2,6-dioxopiperidin-3-yl)-6-((1R,4s)-4-(3-((4-((1S,2R)-6-hydroxy-2-phenyl-1,2,3,4-tetrahydronaphthalen-1-yl)phenyl)(methyl)amino)azetidin-1-yl)cyclohexane-1-carbonyl)-6,7-dihydropyrrolo[3,4-f]isoindole-1,3(2H,5H)-dione] | > 100 | –
12 | C[C@@H]1Cc2c([nH]c3ccccc23)[C@@H](c2c(F)cc(N3CCC(N4CCC(CC(=O)N5Cc6cc7c(cc6C5)C(=O)N(C5CCC(=O)NC5=O)C7=O)CC4)CC3)cc2F)N1CC(F)F (stereo partly drawn) [E 93, 6-(2-(1′-(4-((1R,3R)-2-(2,2-difluoroethyl)-3-methyl-2,3,4,9-tetrahydro-1H-pyrido[3,4-b]indol-1-yl)-3,5-difluorophenyl)-[1,4′-bipiperidin]-4-yl)acetyl)-2-(2,6-dioxopiperidin-3-yl)-6,7-dihydropyrrolo[3,4-f]isoindole-1,3(2H,5H)-dione] | < 10 | –
13 | O=C1CCC(N2C(=O)c3cc4c(cc3C2=O)CN(C2CCC(CNC3CN(c5ccc([C@@H]6c7ccc(O)cc7CC[C@@H]6c6ccccc6)cc5)C3)CC2)C4)C(=O)N1 (stereo partly drawn) [E 338, 2-(2,6-dioxopiperidin-3-yl)-6-(4-(((1-(4-((1R,2S)-6-hydroxy-2-phenyl-1,2,3,4-tetrahydronaphthalen-1-yl)phenyl)azetidin-3-yl)amino)methyl)cyclohexyl)-6,7-dihydropyrrolo[3,4-f]isoindole-1,3(2H,5H)-dione] | > 100 | –
14 | O=C1CCC(N2Cc3cc4c(cc3C2=O)CN(C(=O)[C@H]2CC[C@H](N3CC(Oc5ccc([C@@H]6c7ccc(O)cc7CC[C@@H]6c6ccccc6)cc5)C3)CC2)C4)C(=O)N1 (single isomer, unassigned) [E 357] | < 10 | –
15 | C[C@@H]1Cc2c([nH]c3ccccc23)[C@@H](c2ccc(C3=CCC(C(=O)N4CCC(N5Cc6cc7c(cc6C5)C(=O)N(C5CCC(=O)NC5=O)C7=O)CC4)CC3)cc2F)N1CC(C)(F)F (stereo partly drawn) [E 482, 6-(1-(4′-((1R,3R)-2-(2,2-difluoropropyl)-3-methyl-2,3,4,9-tetrahydro-1H-pyrido[3,4-b]indol-1-yl)-3′-fluoro-2,3,4,5-tetrahydro-[1,1′-biphenyl]-4-carbonyl)piperidin-4-yl)-2-(2,6-dioxopiperidin-3-yl)-6,7-dihydropyrrolo[3,4-f]isoindole-1,3(2H,5H)-dione] | – | > 100
16 | C[C@@H]1Cc2cc(O)ccc2[C@@H](c2c(F)cc(N3CC4(CCN(CC(=O)N5Cc6cc7c(cc6C5)C(=O)N(C5CCC(=O)NC5=O)C7)CC4)C3)cc2F)N1CC(C)(F)F (stereo partly drawn) [E 26, 3-(6-(2-(2-(4-((1S,3R)-2-(2,2-difluoropropyl)-6-hydroxy-3-methyl-1,2,3,4-tetrahydroisoquinolin-1-yl)-3,5-difluorophenyl)-2,7-diazaspiro[3.5]nonan-7-yl)acetyl)-1-oxo-3,5,6,7-tetrahydropyrrolo[3,4-f]isoindol-2(1H)-yl)piperidine-2,6-dione] | > 100 | –
17 | O=C1CCC(N2C(=O)c3cc4c(cc3C2=O)CN(C(=O)CN2CCC3(CC2)CCN(c2ccc(C(=C(CCCl)c5ccccc5)c5ccc(B(O)O)cc5)cc2)CC3)C4)C(=O)N1 (centres unmarked) [E 198, (4-(4-chloro-1-(4-(9-(2-(6-(2,6-dioxopiperidin-3-yl)-5,7-dioxo-3,5,6,7-tetrahydropyrrolo[3,4-f]isoindol-2(1H)-yl)-2-oxoethyl)-3,9-diazaspiro[5.5]undecan-3-yl)phenyl)-2-phenylbut-1-en-1-yl)phenyl)boronic acid] | 10 to 100 | –
